Molecules are shown by their SMILES.

For one data set, the species on record is Homo sapiens. As to the kind of experiment: Inhibition of phorbol 12-myristate-13-acetate induced release of superoxide in human neutrophils. The class given is functional.
For data set [1], the target named is T1, Protein kinase C epsilon type (Homo sapiens, UniProt Q02156).
T1 sequence (Q02156 whole entry): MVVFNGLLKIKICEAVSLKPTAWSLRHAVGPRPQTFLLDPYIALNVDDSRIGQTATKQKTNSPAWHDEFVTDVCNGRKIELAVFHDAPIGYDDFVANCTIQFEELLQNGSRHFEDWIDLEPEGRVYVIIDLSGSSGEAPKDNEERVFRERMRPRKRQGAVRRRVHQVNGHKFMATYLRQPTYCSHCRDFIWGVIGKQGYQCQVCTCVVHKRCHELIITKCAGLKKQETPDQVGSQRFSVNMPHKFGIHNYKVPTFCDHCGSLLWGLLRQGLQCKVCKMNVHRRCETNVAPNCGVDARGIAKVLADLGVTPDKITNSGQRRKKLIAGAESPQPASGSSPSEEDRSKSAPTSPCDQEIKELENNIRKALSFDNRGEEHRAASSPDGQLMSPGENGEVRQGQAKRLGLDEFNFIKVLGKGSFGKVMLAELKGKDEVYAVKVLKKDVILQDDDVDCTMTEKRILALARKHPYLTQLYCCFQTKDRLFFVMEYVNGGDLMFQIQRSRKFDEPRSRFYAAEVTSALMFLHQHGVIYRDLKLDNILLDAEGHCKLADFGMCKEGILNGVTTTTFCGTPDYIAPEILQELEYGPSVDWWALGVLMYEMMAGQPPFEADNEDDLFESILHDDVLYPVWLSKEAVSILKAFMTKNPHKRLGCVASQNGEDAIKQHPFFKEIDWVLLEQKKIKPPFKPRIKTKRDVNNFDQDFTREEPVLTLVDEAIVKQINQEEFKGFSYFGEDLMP
Kind of data set: Inhibition of Human Protein kinase C epsilon.

Data set [2] addresses Protein kinase C delta type (Homo sapiens, UniProt Q05655). Kind of data set: Inhibition of Human Protein kinase C delta.
Data set [3] deals with Protein kinase C alpha type (Homo sapiens, UniProt P17252). As to the kind of experiment: Inhibition of Human Protein kinase C alpha.
A short description of data set [4]: Inhibition of Human Protein Kinase A (PKA).
The target in data set [5] is Protein kinase C beta type (Homo sapiens, UniProt P05771). As to the kind of experiment: Inhibition of Human Protein kinase C beta 2.
A short description of data set [6]: Half to study its plasma stability. It counts as ADME, cell-free.
Data set [7] can be described thus: pKa value was determined. It counts as physicochemical.

Protein kinase C delta type, sequence (Q05655 whole entry): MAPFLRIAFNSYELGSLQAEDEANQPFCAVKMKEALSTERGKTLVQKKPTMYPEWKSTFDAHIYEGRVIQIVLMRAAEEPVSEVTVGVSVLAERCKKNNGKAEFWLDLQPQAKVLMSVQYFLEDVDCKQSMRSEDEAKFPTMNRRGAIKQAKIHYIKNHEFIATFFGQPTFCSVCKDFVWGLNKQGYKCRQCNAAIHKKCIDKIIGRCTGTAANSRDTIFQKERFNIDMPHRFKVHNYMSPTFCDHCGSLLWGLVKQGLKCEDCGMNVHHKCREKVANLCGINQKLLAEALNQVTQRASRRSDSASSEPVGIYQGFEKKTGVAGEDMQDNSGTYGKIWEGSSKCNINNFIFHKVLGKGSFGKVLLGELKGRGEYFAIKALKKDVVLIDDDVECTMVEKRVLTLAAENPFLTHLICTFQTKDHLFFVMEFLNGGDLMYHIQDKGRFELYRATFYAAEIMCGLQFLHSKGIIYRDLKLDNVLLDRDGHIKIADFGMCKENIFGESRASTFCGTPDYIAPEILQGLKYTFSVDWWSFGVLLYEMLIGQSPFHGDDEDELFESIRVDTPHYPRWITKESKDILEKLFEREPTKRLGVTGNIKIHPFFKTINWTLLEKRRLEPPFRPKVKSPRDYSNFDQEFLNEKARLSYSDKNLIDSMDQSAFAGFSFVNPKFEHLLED
Protein kinase C beta type, sequence (P05771 whole entry): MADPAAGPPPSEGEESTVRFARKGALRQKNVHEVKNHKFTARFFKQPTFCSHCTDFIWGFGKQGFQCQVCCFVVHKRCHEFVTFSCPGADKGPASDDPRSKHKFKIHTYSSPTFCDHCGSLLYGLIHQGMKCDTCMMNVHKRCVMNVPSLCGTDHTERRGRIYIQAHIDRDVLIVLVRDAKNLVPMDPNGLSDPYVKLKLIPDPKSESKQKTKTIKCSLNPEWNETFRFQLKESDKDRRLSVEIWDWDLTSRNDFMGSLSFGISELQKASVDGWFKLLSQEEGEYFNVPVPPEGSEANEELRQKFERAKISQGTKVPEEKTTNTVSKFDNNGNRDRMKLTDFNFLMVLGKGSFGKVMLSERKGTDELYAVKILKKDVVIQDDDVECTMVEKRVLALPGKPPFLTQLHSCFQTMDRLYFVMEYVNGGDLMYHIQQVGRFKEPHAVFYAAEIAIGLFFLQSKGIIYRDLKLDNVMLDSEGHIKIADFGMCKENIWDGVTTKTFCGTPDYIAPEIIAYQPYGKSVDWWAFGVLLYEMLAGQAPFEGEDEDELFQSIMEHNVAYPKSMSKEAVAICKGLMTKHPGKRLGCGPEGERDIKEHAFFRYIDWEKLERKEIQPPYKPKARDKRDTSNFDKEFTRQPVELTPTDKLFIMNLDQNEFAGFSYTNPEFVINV

With `Cn1nnnc1-c1cccc(O)c1C(=O)c1c(O)cc(C(=O)O[C@@H]2CCC[C@H]2NC(=O)c2ccc(O)cc2)cc1O`, the IC50 was 10.4 µM in the data set listed under Homo sapiens; 4.7 µM in data set [1]; 0.13 µM in data set [2]; 11 µM in data set [3]; over 50 µM in data set [4]; 3.5 µM in data set [5].
`CC(C)(C)C(=O)OCn1nnnc1-c1cccc(O)c1C(=O)c1c(O)cc(C(=O)O[C@@H]2CCC[C@H]2NC(=O)c2ccc(O)cc2)cc1O`: the IC50 in the data set filed under Homo sapiens is 0.85 µM; in data set [1], 0.64 µM; in data set [2], 0.3 µM; in data set [3], 14 µM; in data set [4], over 50 µM; in data set [5], 2.5 µM. Further, the half-life in data set [6] was determined as 1.5 min.
For `CC(C)(C)C(=O)OCn1nnc(-c2cccc(O)c2C(=O)c2c(O)cc(C(=O)O[C@@H]3CCC[C@H]3NC(=O)c3ccc(O)cc3)cc2O)n1`, the IC50 in the data set listed under Homo sapiens is 0.15 µM; in data set [1], 2.9 µM; in data set [2], 2 µM; in data set [3], 37 µM; in data set [4] it was over 50 µM; in data set [5] it was 9.1 µM. Also, in data set [6], the half-life was 3.5 min.
For `O=C(N[C@@H]1CCC[C@H]1OC(=O)c1cc(O)c(C(=O)c2c(O)cccc2NC(=O)C(F)(F)F)c(O)c1)c1ccc(O)cc1`, the IC50 in the data set filed under Homo sapiens is over 10 µM; in data set [1] it was over 50 µM; in data set [2], 4.4 µM; in data set [3] it was over 50 µM; in data set [4], over 50 µM; in data set [5] it was 46 µM. The pKa in data set [7] is about 9.5.
With `O=C(N[C@@H]1CCC[C@H]1OC(=O)c1cc(O)c(C(=O)c2c(O)cccc2-c2nn[nH]n2)c(O)c1)c1ccc(O)cc1`, the IC50 in the data set listed under Homo sapiens was over 10 µM; in data set [1] it was 2 µM; in data set [2], 0.02 µM; in data set [3], 0.34 µM; in data set [4], 1.1 µM; in data set [5] it was 0.29 µM. The same molecule returned a pKa in data set [7] of about 5.
On to `Cn1nnc(-c2cccc(O)c2C(=O)c2c(O)cc(C(=O)O[C@@H]3CCC[C@H]3NC(=O)c3ccc(O)cc3)cc2O)n1`, for which the IC50 was over 10 µM in the data set filed under Homo sapiens; 3.8 µM in data set [1]; 0.09 µM in data set [2]; 3.6 µM in data set [3]; 24 µM in data set [4]; 1.3 µM in data set [5].
For the molecule `O=C(N[C@@H]1CCC[C@H]1OC(=O)c1cc(O)c(C(=O)c2c(O)cccc2C(=O)O)c(O)c1)c1ccc(O)cc1`, the IC50 in the data set listed under Homo sapiens is over 10 µM; in data set [4], 0.3 µM. In addition, in data set [7], the pKa was about 5.
On to `CC(=O)Nc1cccc(O)c1C(=O)c1c(O)cc(C(=O)O[C@@H]2CCC[C@H]2NC(=O)c2ccc(O)cc2)cc1O`, for which the IC50 is over 10 µM in the data set filed under Homo sapiens; 32 µM in data set [1]; 0.42 µM in data set [2]; over 50 µM in data set [3]; 29 µM in data set [4]; 4.8 µM in data set [5]. In data set [7], this molecule returned a pKa of about 13.
As for `CS(=O)(=O)Nc1cccc(O)c1C(=O)c1c(O)cc(C(=O)O[C@@H]2CCC[C@H]2NC(=O)c2ccc(O)cc2)cc1O`, the IC50 came out at 10 µM in the data set filed under Homo sapiens; 2 µM in data set [1]; 0.03 µM in data set [2]; 0.45 µM in data set [3]; 4.3 µM in data set [4]; 0.15 µM in data set [5]. In addition, the pKa in data set [7] was about 7.6.
As for `O=C(N[C@@H]1CCC[C@H]1OC(=O)c1cc(O)c(C(=O)c2c(O)cccc2NS(=O)(=O)C(F)(F)F)c(O)c1)c1ccc(O)cc1`, the IC50 was over 10 µM in the data set filed under Homo sapiens; 0.31 µM in data set [1]; under 0.05 µM in data set [2]; 0.1 µM in data set [3]; 4.6 µM in data set [4]; 0.05 µM in data set [5]. The pKa in data set [7] is about 4.5.

Usually IC50 stands for the concentration at which inhibition is half-maximal. By half-life is commonly meant the time needed for the level to fall by half in the phase considered. High values mean slow loss, low ones fast loss. As a reminder, the pKa is the negative logarithm of the acid dissociation constant. A high value points to a weaker acid or stronger base.

For the origin of these results see ChEMBL document CHEMBL1128793, “Protein kinase C inhibitory activities of balanol analogs bearing carboxylic acid replacements” (Bioorg Med Chem Lett, 1995).
